In ChEMBL document CHEMBL1201862, “PubChem BioAssay data set” (2004):
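Grown in 96-well plates, cells were treated for 48 hours with each compound at five concentrations. Insufficient inhibition: endpoint recorded as highest concentration tested. GI50: concentration for 50% inhibition of growth.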 Activity calls are given as the source filed them. Rule as the data show it: active = GI50 up to about 1.1 µM and inactive = higher.

Tests used:
Assay in all cases: NCI tumour cell line growth inhibition, 48 h
EKVX = tested on: EKVX
RPMI-8226 = tested on: RPMI-8226
IGROV-1 = tested on: IGROV-1
HOP-62 = tested on: HOP-62
LOX IMVI = tested on: LOX IMVI
SF-295 = tested on: SF-295
SR = tested on: SR
SF-539 = tested on: SF-539
OVCAR-5 = tested on: OVCAR-5
COLO 205 = tested on: COLO 205
SNB-75 = tested on: SNB-75
CCRF-CEM = tested on: CCRF-CEM
CAKI-1 = tested on: CAKI-1
A498 = tested on: A498

| SMILES | GI50 (EKVX) | GI50 (RPMI-8226) | GI50 (IGROV-1) | GI50 (HOP-62) | GI50 (LOX IMVI) | GI50 (SF-295) | GI50 (SR) | GI50 (SF-539) | GI50 (OVCAR-5) | GI50 (COLO 205) | GI50 (SNB-75) | GI50 (CCRF-CEM) | GI50 (CAKI-1) | GI50 (A498) |
| --- | --- | --- | --- | --- | --- | --- | --- | --- | --- | --- | --- | --- | --- | --- |
| CN(CCN(C)C(=O)CCn1cc(F)c(=O)[nH]c1=O)C(=O)CCn1cc(F)c(=O)[nH]c1=O | > 100 µM (inactive) | > 100 µM (inactive) | > 100 µM (inactive) | > 100 µM (inactive) | > 100 µM (inactive) | > 100 µM (inactive) | > 100 µM (inactive) | 95.5 µM (inactive) | > 100 µM (inactive) | > 100 µM (inactive) | 36.2 µM (inactive) | > 100 µM (inactive) |  |  |
| COC(=O)[C@@H]1CSC(=S)N1C(=O)C[C@H]1CC=CC[C@H]1CC(=O)Sc1ccccc1 | 17.4 µM (inactive) | 12.5 µM (inactive) | 19.8 µM (inactive) | 20.7 µM (inactive) | 17.7 µM (inactive) | 22 µM (inactive) | 8.99 µM (inactive) | 17.8 µM (inactive) | 19.1 µM (inactive) | 19.5 µM (inactive) | 15.4 µM (inactive) | 3.04 µM (inactive) | > 10 µM (inactive) |  |
| Nc1nc(=O)c(/N=N/c2ccccc2)c(N)[nH]1 |  | > 100 µM (inactive) | 29.6 µM (inactive) | 30.8 µM (inactive) | 47.5 µM (inactive) | 32.7 µM (inactive) | > 100 µM (inactive) | 26.4 µM (inactive) | 41.3 µM (inactive) | 65 µM (inactive) | 3.78 µM (inactive) | 36.5 µM (inactive) | 66.7 µM (inactive) | 45.2 µM (inactive) |
| O=C1CC2CCN(C(=O)c3ccccc3)CC2CCN1.O=C1CCC2CC(C(=O)c3ccccc3)CCC2CN1 (stereo unspecified) | > 100 µM (inactive) | > 100 µM (inactive) | > 100 µM (inactive) | > 100 µM (inactive) |  | > 100 µM (inactive) | > 100 µM (inactive) | > 100 µM (inactive) | > 100 µM (inactive) | > 100 µM (inactive) | > 100 µM (inactive) | > 100 µM (inactive) | > 100 µM (inactive) |  |
| N#Cc1ccccc1NC(=O)c1ccccc1 | > 100 µM (inactive) | > 100 µM (inactive) | > 100 µM (inactive) | > 100 µM (inactive) | > 100 µM (inactive) | > 100 µM (inactive) | > 100 µM (inactive) | > 100 µM (inactive) | > 100 µM (inactive) | > 100 µM (inactive) | 68.5 µM (inactive) |  | > 100 µM (inactive) | > 100 µM (inactive) |
| CCCCCNC(=O)C1C(=O)N(CCCCC)C(=O)/C1=N\N (stereo unspecified) | 86.7 µM (inactive) |  | 53 µM (inactive) | 35.5 µM (inactive) |  | 30.5 µM (inactive) |  | 59.4 µM (inactive) | > 100 µM (inactive) | > 100 µM (inactive) |  | 49.2 µM (inactive) |  | > 100 µM (inactive) |
| CN1CC(C(=O)C2C(=O)c3ccccc3C2=O)C(=O)C(=O)C(C(=O)C2C(=O)c3ccccc3C2=O)C1 (stereo unspecified) |  |  | > 100 µM (inactive) | > 10 µM (inactive) | > 100 µM (inactive) | > 100 µM (inactive) | > 100 µM (inactive) | > 100 µM (inactive) | > 100 µM (inactive) | > 100 µM (inactive) | 32.9 µM (inactive) | > 100 µM (inactive) | > 100 µM (inactive) | > 100 µM (inactive) |
| O=C(O/N=C1/CCCC/C1=C\c1ccccc1)c1ccccc1 | > 100 µM (inactive) | > 100 µM (inactive) | 0.108 µM (active) | > 100 µM (inactive) | 33 µM (inactive) | 70.3 µM (inactive) | 43.5 µM (inactive) | > 100 µM (inactive) | > 100 µM (inactive) | > 100 µM (inactive) | > 100 µM (inactive) | 36.8 µM (inactive) |  | 0.178 µM (active) |
| C=CCc1cc(OC)c(O)c(C(=O)/C=C/c2ccc(OC)c(OC)c2)c1 | 20.2 µM (inactive) | 0.67 µM (active) | 44.6 µM (inactive) | > 10 µM (inactive) | 16.3 µM (inactive) | 16.1 µM (inactive) |  | 19.1 µM (inactive) | 20.1 µM (inactive) | 15.3 µM (inactive) | 22.5 µM (inactive) | 9.98 µM (inactive) | 22.1 µM (inactive) | 17.9 µM (inactive) |
| C/C(=N\NS(=O)(=O)c1ccccc1)c1ccc[n+]([O-])n1 | > 100 µM (inactive) | 28.1 µM (inactive) | > 100 µM (inactive) | > 100 µM (inactive) |  | > 100 µM (inactive) | 32.3 µM (inactive) | > 100 µM (inactive) | > 100 µM (inactive) |  | 47.6 µM (inactive) | 19.4 µM (inactive) | 34.1 µM (inactive) | > 100 µM (inactive) |
| CCOC(=O)C1C(c2ccc(Br)cc2)N(Cc2ccccc2)C(c2ccc(Br)cc2)C(C(=O)OC)S1(=O)=O (stereo unspecified) | > 100 µM (inactive) | 32.7 µM (inactive) | > 100 µM (inactive) | > 100 µM (inactive) | > 100 µM (inactive) | 35.4 µM (inactive) | 34.4 µM (inactive) |  | > 100 µM (inactive) | > 100 µM (inactive) | 21.3 µM (inactive) | 40.4 µM (inactive) | 77.1 µM (inactive) |  |
| Clc1c(Cl)c2c(Cl)c(Cl)c1C[PH](c1ccccc1)(c1ccccc1)CC[PH](c1ccccc1)(c1ccccc1)Cc1c(Cl)c(Cl)c(c(Cl)c1Cl)C[PH](c1ccccc1)(c1ccccc1)CC[PH](c1ccccc1)(c1ccccc1)C2 | 9.08 µM (inactive) | 1.28 µM (inactive) | 2.86 µM (inactive) | 4.95 µM (inactive) | 2.52 µM (inactive) | 3.35 µM (inactive) |  | 3.68 µM (inactive) | 3.15 µM (inactive) | 1.53 µM (inactive) | 3.46 µM (inactive) | 2.46 µM (inactive) | 7.06 µM (inactive) | 11.4 µM (inactive) |
| O=C1NC(=O)C(=Cc2c3ccccc3cc3ccccc23)C(=O)N1 |  | 31.6 µM (inactive) | > 100 µM (inactive) | > 100 µM (inactive) | > 100 µM (inactive) |  |  | > 100 µM (inactive) |  | > 100 µM (inactive) |  | 59.3 µM (inactive) | 47.2 µM (inactive) | > 100 µM (inactive) |
| Cc1ccc(C(=O)C#Cc2cnc(O)nc2O)cc1 | 17.2 µM (inactive) |  | 16.7 µM (inactive) | 29.3 µM (inactive) | 3.92 µM (inactive) | 29.2 µM (inactive) |  | 4.09 µM (inactive) | 18.9 µM (inactive) | 13 µM (inactive) | 19.1 µM (inactive) | 3.44 µM (inactive) | 16.9 µM (inactive) | 14.7 µM (inactive) |
| CCOC(=O)/C=C(/CN1C(=O)c2ccccc2C1=O)c1ccccc1 | > 100 µM (inactive) | > 100 µM (inactive) | > 100 µM (inactive) | > 100 µM (inactive) | > 100 µM (inactive) | > 100 µM (inactive) |  | > 100 µM (inactive) | > 100 µM (inactive) | > 100 µM (inactive) | > 100 µM (inactive) | > 100 µM (inactive) | > 100 µM (inactive) | > 100 µM (inactive) |
